In US12590069B2, “Crystalline salts of a plasma kallikrein inhibitor” (BioCryst Pharmaceuticals, Inc., priority 2018, dated 2026):
Counter-ions that a name gives are not always drawn.

Legend:
[1] = Phase I multiple ascending oral dose pharmacokinetics in healthy subjects (plasma, LC-MS/MS); format: in vivo, human; settings: for Ctau (trough plasma concentration at end of dosing interval) / Cmax / AUC / Tmax: healthy subjects; for Ctau (trough plasma concentration at end of dosing interval) / Cmax / AUC: geometric mean; for Cmax / AUC / Tmax: human, plasma, po; for Tmax: median
Experimental: As part of a Phase I, double-blind, placebo-controlled dose-ranging study, the pharmacokinetics of multiple ascending oral doses of Compound I·2 (HCl) were evaluated in healthy subjects. Four ascending dose cohorts were enrolled for dosing in a sequential manner. At the start, twelve subjects were randomized into each cohort for administration of a 7-day or 14-day course of study drug (n=10/cohort received Compound I·2 (HCl) and n=2/cohort received matching placebo) according to the following dose regimens: 125 mg Compound I·2 (HCl) or placebo once per day (QD) for 7 days in Cohort 1; 250 mg Compound I·2 (HCl) or placebo QD for 7 days in Cohort 2; 500 mg Compound I·2 (HCl) or placebo QD for 7 days in Cohort 3; […] Overall, 37 out of the 40 subjects receiving multiple doses of Compound I·2 (HCl) completed their respective dose regimens and were available for assessment of PK parameters at either Day 7 or Day 14.
Serial blood samples were drawn for pharmacokinetic analysis before dose administration on Day 7 or Day 14, and over the following 24 hours. The plasma samples for determination of Compound I·2 (HCl) concentrations were analyzed with the use of a validated LC-MS/MS (Liquid Chromatography with tandem mass spectrometry) bioanalytical assay.
Plasma Compound I·2 (HCl) concentration versus time profiles on Day 7 after QD oral administration of Compound I·2 (HCl) at 125, 250, and 500 mg QD, and on Day 14 after QD oral administration of Compound I·2 (HCl) at 350 mg QD, are shown in FIG. 3.
Table 1 provides a summary of plasma pharmacokinetic parameters [the maximum (peak) plasma drug concentration (Cmax), time (observed time point) to reach maximum (peak) plasma drug concentration following drug administration (Tmax), the observed trough plasma concentration at the end of the dosing interval (Ctau), and the area under the plasma concentration-time curve over the dosing interval (AUCtau)] following 7 or 14 days of multiple oral doses of Compound I·2 (HCl).

[2] = system: hereditary angioedema (HAE); settings: HAE patients; cited from earlier work
[3] = system: arthritis; settings: rat models of arthritis; cited from earlier work
[4] = system: lipopolysaccharide (LPS)- or bacterial-induced sepsis; settings: LPS- or bacterial-induced sepsis in animals; cited from earlier work
[5] = system: sepsis; settings: cited from earlier work
[6] = system: middle cerebral artery occlusion (MCAO); settings: mouse MCAO model; cited from earlier work
[7] = across the full 4-fold dose range (125 mg to 500 mg QD)
[8] = 125 mg, 125 mg QD oral, Day 7 (N = 10)
[9] = 350 mg, 350 mg QD oral, Day 14 (N = 9)
[10] = 350 mg, third dose column, 350 mg QD, Day 7 (N = 9), oral
[11] = 500 mg, second dose column, 500 mg QD, Day 7 (N = 9), oral

Molecule: N#Cc1cccc([C@@H](NCC2CC2)c2ccc(F)c(NC(=O)c3cc(C(F)(F)F)nn3-c3cccc(CN)c3)c2)c1 [Compound I•2(HCl)]
- Ctau (trough plasma concentration at end of dosing interval) ([1]; 125 mg QD oral, Day 7 (N = 10)): 46.1 ng/mL
- Increase in geometric mean AUCtau [1, 7]: 5.1 fold
- Increase in geometric mean Cmax [1, 7]: 5.3 fold
- Cmax [1, 8]: 97.8 ng/mL
- AUC [1, 8]: 1600 ng·h/mL
- Tmax [1, 8]: 5 h
- Cmax [1, 9]: 363 ng/mL
- AUC [1, 9]: 5720 ng·h/mL
- Cmax [1, 10]: 517 ng/mL
- AUC [1, 10]: 8230 ng·h/mL
- Cmax [1, 11]: 217 ng/mL
- AUC [1, 11]: 3710 ng·h/mL
- Tmax [1, 11]: 6 h
- Dose proportionality of exposure ([1]; increase from 125 mg to 250 mg QD and 250 mg to 500 mg QD): reasonable dose proportionality
- Ctau (trough plasma concentration at end of dosing interval) ([1]; second dose column, 500 mg QD, Day 7 (N = 9), oral): 101 ng/mL

Molecule: NC(N)=NCCC[C@@H](N)C(=O)N[C@@H](CCCN=C(N)N)C(=O)N1CCC[C@H]1C(=O)N1C[C@H](O)C[C@H]1C(=O)NCC(=O)N[C@@H](Cc1cccs1)C(=O)N[C@@H](CO)C(=O)N1Cc2ccccc2C[C@@H]1C(=O)N1[C@H](C(=O)N[C@@H](CCCN=C(N)N)C(=O)O)C[C@@H]2CCCC[C@@H]21 [Icatibant]
- Efficacy in treating HAE [2]: effective in treating HAE

Molecule: Cl.NCC1CCC(C(=O)N[C@@H](Cc2ccccc2)C(=O)Nc2ccc(CC(=O)O)cc2)CC1 (stereo partly drawn) [PKSI-527]
- Joint swelling [3]: reduce joint swelling

Molecule: H-D-Pro-Phe-Arg-chloromethylketone [H-D-Pro-Phe-Arg-chloromethylketone (CMK), reference compound]
- Vascular permeability in multiple organs and lesions [4]: reduce vascular permeability in multiple organs and reduce lesions

B1: C1-inhibitor: physiological inhibitor of kallikrein in human plasma (protein, UniProt P05155 23-500, looked up)
Plasma protease C1 inhibitor: NPNATSSSSQDPESLQDRGEGKVATTVISKMLFVEPILEVSSLPTTNSTTNSATKITANTTDEPTTQPTTEPTTQPTIQPTQPTTQLPTDSPTQPTTGSFCPGPVTLCSDLESHSTEAVLGDALVDFSLKLYHAFSAMKKVETNMAFSPFSIASLLTQVLLGAGENTKTNLESILSYPKDFTCVHQALKGFTTKGVTSVSQIFHSPDLAIRDTFVNASRTLYSSSPRVLSNNSDANLELINTWVAKNTNNKISRLLDSLPSDTRLVLLNAIYLSAKWKTTFDPKKTRMEPFHFKNSVIKVPMMNSKKYPVAHFIDQTLKAKVGQLQLSHNLSLVILVPQNLKHRLEDMEQALSPSVFKAIMEKLEMSKFQPTLLTLPRIKVTTSQDMLSIMEKLEFFDFSYDLNLCGLTEDPDLQVSAMQHQTVLELTETGVEAAAASAISVARTLLVFEVQQPFLFVLWDQQHKFPVFMGRVYDPRA
- Vascular permeability in multiple organs and lesions [4]: reduce vascular permeability in multiple organs and reduce lesions
- Clinical outcome in sepsis patients [5]: Clinical improvement
- Infarct size [6]: reduced infarct size
